Experimental data: patent publication US9624214B2, “Amino-substituted imidazo[1,2-a]pyridinecarboxamides and their use” (BAYER PHARMA AKTIENGESELLSCHAFT, priority 2012, dated 2017)

What follows are molecules tested against T1, recombinant guanylate cyclase reporter cell line (Rattus norvegicus, UniProt P19686+P20595) (assay: B-2. Action on recombinant guanylate cyclase reporter cell line). Conditions: MEC = minimal effective concentration; in some cases mean values from individual determinations.
T1 construct: expressed in transfected cells
T1 sequence (P20595 1-619): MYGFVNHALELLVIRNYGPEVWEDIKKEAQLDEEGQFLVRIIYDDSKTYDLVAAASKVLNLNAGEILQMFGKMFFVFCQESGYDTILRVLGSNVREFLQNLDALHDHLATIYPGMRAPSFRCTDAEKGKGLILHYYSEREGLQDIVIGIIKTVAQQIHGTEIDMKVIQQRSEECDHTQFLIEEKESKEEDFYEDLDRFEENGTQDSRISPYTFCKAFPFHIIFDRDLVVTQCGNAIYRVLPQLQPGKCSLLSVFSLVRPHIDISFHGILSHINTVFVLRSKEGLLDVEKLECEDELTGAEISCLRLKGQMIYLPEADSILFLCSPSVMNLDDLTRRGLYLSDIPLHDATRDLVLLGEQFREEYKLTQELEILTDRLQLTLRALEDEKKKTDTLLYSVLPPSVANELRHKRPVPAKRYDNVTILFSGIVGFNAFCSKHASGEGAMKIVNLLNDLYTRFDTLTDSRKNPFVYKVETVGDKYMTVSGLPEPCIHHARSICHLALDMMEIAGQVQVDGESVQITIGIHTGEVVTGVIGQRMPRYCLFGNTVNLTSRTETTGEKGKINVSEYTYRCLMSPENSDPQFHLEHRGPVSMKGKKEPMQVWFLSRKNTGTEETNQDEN
T1 sequence (P19686 1-690): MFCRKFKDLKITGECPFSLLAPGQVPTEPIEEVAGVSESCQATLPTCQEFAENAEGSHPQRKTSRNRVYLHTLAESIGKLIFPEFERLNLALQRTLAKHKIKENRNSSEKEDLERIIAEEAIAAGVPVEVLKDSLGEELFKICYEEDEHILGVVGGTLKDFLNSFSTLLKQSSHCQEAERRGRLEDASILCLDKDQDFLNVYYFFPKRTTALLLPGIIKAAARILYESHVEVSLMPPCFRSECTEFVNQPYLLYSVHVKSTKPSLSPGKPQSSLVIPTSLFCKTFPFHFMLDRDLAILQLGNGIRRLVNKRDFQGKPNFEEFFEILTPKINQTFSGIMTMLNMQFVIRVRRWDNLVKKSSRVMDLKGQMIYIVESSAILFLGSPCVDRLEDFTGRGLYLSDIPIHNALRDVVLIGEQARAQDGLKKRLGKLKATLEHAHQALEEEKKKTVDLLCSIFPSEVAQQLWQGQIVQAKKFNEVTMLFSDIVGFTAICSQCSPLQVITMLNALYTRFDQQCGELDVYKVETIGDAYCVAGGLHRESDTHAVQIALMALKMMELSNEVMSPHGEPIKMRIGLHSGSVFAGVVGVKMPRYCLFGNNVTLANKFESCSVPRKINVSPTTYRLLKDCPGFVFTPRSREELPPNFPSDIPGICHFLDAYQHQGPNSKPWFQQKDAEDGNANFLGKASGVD
Type: cell-based
Procedure, shortened: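 Cellular activity was measured in a reporter cell line expressing recombinant guanylate cyclase. Values are given as MEC, the minimal effective concentration, and some are means of individual determinations.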
Molecule Cc1cc(OCc2c(F)cccc2F)c2nc(C)c(C(=O)NCCN3CC(N4CCCC4)C3)n2c1 [Example 162, 8-[(2,6-difluorobenzyl)oxy]-2,6-dimethyl-N-{2-[3-(pyrrolidin-1-yl)azetidin-1-yl]ethyl}imidazo[1,2-a]pyridine-3-carboxamide] has an MEC of 3.00 µM.
Cc1cc(OCc2c(F)cccc2F)c2nc(C)c(C(=O)NCCN3CCC(F)(F)CC3)n2c1 [Example 163, 8-[(2,6-difluorobenzyl)oxy]-N-[2-(4,4-difluoro-piperidin-1-yl)ethyl]-2,6-dimethylimidazo[1,2-a]pyridine-3-carboxamide] showed an MEC of 0.30 µM.
For Cc1cc(OCc2c(F)cccc2F)c2nc(C)c(C(=O)NCCN(CC(F)F)C3CC3)n2c1 [Example 164, N-{2-[cyclopropyl(2,2-difluoroethyl)amino]ethyl}-8-[(2,6-difluorobenzyl)oxy]-2,6-dimethylimidazo[1,2-a]-pyridine-3-carboxamide], the MEC was 0.10 µM.
For Cc1cc(OCc2c(F)cccc2F)c2nc(C)c(C(=O)NCC3(N)CCC3)n2c1 [Example 165, N-[(1-aminocyclobutyl)methyl]-8-[(2,6-difluorobenzyl)oxy]-2,6-dimethylimidazo[1,2-a]-pyridine-3-carboxamide], the MEC was 0.10 µM.
For Cc1cc(OCc2c(F)cccc2F)c2nc(C)c(C(=O)NCCN3C[C@@H](C)O[C@@H](C)C3)n2c1 [Example 167, 8-[(2,6-difluorobenzyl)oxy]-N-{2-[(2R,6S)-2,6-dimethylmorpholin-4-yl]ethyl}-2,6-dimethyl-imidazo[1,2-a]pyridine-3-carboxamide], the MEC was 1.00 µM.
In the case of Cc1nc2c(OCc3c(F)cccc3F)cccn2c1C(=O)NCCN1CCN(C2CC2)CC1 [Example 168, N-[2-(4-Cyclopropylpiperazin-1-yl)ethyl]-8-[(2,6-difluorobenzyl)oxy]-2-methylimidazo[1,2-a]-pyridine-3-carboxamide], the MEC is reported as 1.00 µM.
Molecule Cc1nc2c(OCc3c(F)cccc3F)cccn2c1C(=O)NCCNCC(F)F [Example 169, 8-[(2,6-difluorobenzyl)oxy]-N-{2-[(2,2-difluoroethyl)amino]ethyl}-2-methylimidazo[1,2-a]pyridine-3-carboxamide] has an MEC of 1.65 µM.
In the case of Cc1nc2c(OCc3c(F)cccc3F)cccn2c1C(=O)N[C@H](C)CN1CCOCC1 [Example 170, 8-[(2,6-difluorobenzyl)oxy]-2-methyl-N-[(2R)-1-(morpholin-4-yl)propan-2-yl]imidazo[1,2-a]-pyridine-3-carboxamide], the MEC is reported as 3.00 µM.
Cc1nc2c(OCc3c(F)cccc3F)cccn2c1C(=O)N[C@@H](C)CN1CCOCC1 [Example 171, 8-[(2,6-difluorobenzyl)oxy]-2-methyl-N-[(2S)-1-(morpholin-4-yl)propan-2-yl]imidazo[1,2-a]-pyridine-3-carboxamide] was tested, and the MEC was 1.00 µM.
In the case of Cc1cc(OCc2c(F)cccc2F)c2nc(C)c(C(=O)NC[C@@H]3CCCCN3)n2c1 [Example 172, 8-[(2,6-Difluorobenzyl)oxy]-2,6-dimethyl-N-[(2S)-piperidin-2-ylmethyl]imidazo[1,2-a]pyridine-3-carboxamide], the MEC is reported as 0.30 µM.
Cc1cc(OCc2c(F)cccc2F)c2nc(C)c(C(=O)NC[C@H]3CCCCN3)n2c1 [Example 173, 8-[(2,6-Difluorobenzyl)oxy]-2,6-dimethyl-N-[(2R)-piperidin-2-ylmethyl]imidazo[1,2-a]pyridine-3-carboxamide] gave an MEC of 0.30 µM.
With Cc1cc(OCc2c(F)cccc2F)c2nc(C)c(C(=O)NCC3(N)COC3)n2c1 [Example 216, N-[(3-Aminooxetan-3-yl)methyl]-8-[(2,6-difluorobenzyl)oxy]-2,6-dimethylimidazo[1,2-a]pyridine-3-carboxamide] the MEC was 1.00 µM.
Cc1cc(OCc2c(F)cccc2F)c2nc(C)c(C(=O)N[C@@H]3CCCC[C@H]3N)n2c1 [Example 251, ent-N-[(1R,2R)-2-Aminocyclohexyl]-8-[(2,6-difluorobenzyl)oxy]-2,6-dimethylimidazo[1,2-a]-pyridine-3-carboxamide] showed an MEC of 3.00 µM.
With CCC(N)(CC)CNC(=O)c1c(C)nc2c(OCc3c(F)cccc3F)cccn12 [Example 253, N-(2-Amino-2-ethylbutyl)-8-[(2,6-difluorobenzyl)oxy]-2-methylimidazo[1,2-a]pyridine-3-carboxamide] the MEC was 0.10 µM.
Work on Cc1cc(OCc2c(F)cccc2F)c2nc(C)c(C(=O)NCCNC(C)(C)C)n2c1 [Example 255, N-[2-(tert-Butylamino)ethyl]-8-[(2,6-difluorobenzyl)oxy]-2,6-dimethylimidazo[1,2-a]pyridine-3-carboxamide] yielded an MEC of 0.30 µM.
For CCCC(C)(N)CNC(=O)c1c(C)nc2c(OC(C)c3c(F)cccc3F)cc(C)cn12 (centres unmarked) [Example 257, N-(2-Amino-2-methylpentyl)-8-[1-(2,6-difluorophenyl)ethoxy]-2,6-dimethylimidazo[1,2-a]-pyridine-3-carboxamide], the MEC was 1.00 µM.
Cc1cc(OCc2c(F)ccc(F)c2F)c2nc(C)c(C(=O)NCC(C)(C)N)n2c1 [Example 276, N-(2-Amino-2-methylpropyl)-2,6-dimethyl-8-[(2,3,6-trifluorobenzyl)oxy]imidazo[1,2-a]pyridine-3-carboxamide] gave an MEC of 0.10 µM.
COC(=O)[C@@H](N)CCCCNC(=O)c1c(C)nc2c(OCc3c(F)cccc3F)cc(C)cn12 [Example 294, Methyl N^6-({8-[(2,6-difluorobenzyl)oxy]-2,6-dimethylimidazo[1,2-a]pyridin-3-yl}carbonyl)-L-lysinate] showed an MEC of 0.065 µM.
For CCCC(C)(N)CNC(=O)c1c(C(F)(F)F)nc2c(OCc3c(F)cccc3F)cc(C)cn12 (stereo not drawn) [Example 305, ent-N-(2-amino-2-methylpentyl)-8-[(2,6-difluorobenzyl)oxy]-6-methyl-2-(trifluoromethyl)imidazo[1,2-a]pyridine-3-carboxamide], the MEC was 0.10 µM.
In the case of CCCC(C)(N)CNC(=O)c1c(C)nc2c(OCc3c(F)cccc3F)cc(Br)cn12 (stereo not drawn) [Example 306, ent-N-(2-amino-2-methylpentyl)-6-bromo-8-[(2,6-difluorobenzyl)oxy]-2-methylimidazo[1,2-a]pyridine-3-carboxamide], the MEC is reported as 0.10 µM.
In the case of Cc1cc(OCc2c(F)cccc2F)c2nc(C)c(C(=O)NCC3(N)CCCCC3)n2c1 [Example 307, N-[(1-aminocyclohexyl)methyl]-8-[(2,6-difluorobenzyl)oxy]-2,6-dimethylimidazo[1,2-a]pyridine-3-carboxamide], the MEC is reported as 0.65 µM.
Cc1cc(OCc2c(F)cccc2F)c2nc(C)c(C(=O)N[C@H]3C[C@H]4CN(C)CCN4C3)n2c1 [Example 314, 8-[(2,6-Difluorobenzyl)oxy]-2,6-dimethyl-N-[(7S,8aS)-2-methyloctahydropyrrolo[1,2-a]pyrazin-7-yl]imidazo[1,2-a]pyridine-3-carboxamide] gave an MEC of 0.30 µM.
CCC(C)(CN)NC(=O)c1c(C)nc2c(OCc3c(F)ccc(F)c3F)cc(C)cn12 (stereo not drawn) [Example 315, ent-N-(1-amino-2-methylbutan-2-yl)-2,6-dimethyl-8-[(2,3,6-trifluorobenzyl)oxy]imidazo[1,2-a]pyridine-3-carboxamide] was tested, and the MEC was 0.30 µM.
For CCCC(C)(N)CNC(=O)c1c(C)nc2c(OCc3c(F)cccc3F)cccn12 (stereo not drawn) [Example 318, ent-N-(2-amino-2-methylpentyl)-8-[(2,6-difluorobenzyl)oxy]-2-methylimidazo[1,2-a]pyridine-3-carboxamide], the MEC was 0.30 µM.
Molecule COC(=O)[C@@H](N)CNC(=O)c1c(C)nc2c(OCc3c(F)cccc3F)cc(C)cn12 [Example 319, Methyl 3-[({8-[(2,6-difluorobenzyl)oxy]-2,6-dimethylimidazo[1,2-a]pyridin-3-yl}carbonyl)amino]-L-alaninate] has an MEC of 0.30 µM.
Work on CCCC(C)(N)CNC(=O)c1c(C2CC2)nc2c(OCc3c(F)cccc3F)cc(C)cn12 (stereo not drawn) [Example 322, ent-N-(2-amino-2-methylpentyl)-2-cyclopropyl-8-[(2,6-difluorobenzyl)oxy]-6-methylimidazo[1,2-a]pyridine-3-carboxamide] yielded an MEC of 0.30 µM.
